From PubChem BioAssay (NCI)
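Assay format: 96-well plates, 48-hour exposure. Definition used: TGI = concentration required for complete inhibition of growth.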

Legend:
Assay in all cases: inhibition of tumour cell growth, NCI panel, 48 h
[1] = system: EKVX NSCLC
[2] = system: SK-OV-3 ovarian
[3] = system: SNB-19 CNS
[4] = system: SK-MEL-5 melanoma
[5] = system: U251 CNS
[6] = system: SN12C renal
[7] = system: OVCAR-3 ovarian
[8] = system: A498 renal
[9] = system: KM12 colon
[10] = system: CAKI-1 renal

SMILES | TGI [1] | TGI [2] | TGI [3] | TGI [4] | TGI [5] | TGI [6] | TGI [7] | TGI [8] | TGI [9] | TGI [10]
COC(=O)Cn1cnc2c(Cl)nc(Nc3ccccc3)nc21 | 88 µM | > 100 µM | > 100 µM | > 100 µM | > 100 µM | > 100 µM | 50.7 µM | > 100 µM | > 100 µM | –
CC1(C)C=C(/C=N/Nc2ccccc2)C(C#N)=C(O)C1(C#N)C#N | > 100 µM | > 100 µM | > 100 µM | > 100 µM | – | > 100 µM | > 100 µM | > 100 µM | > 100 µM | > 100 µM
O=C(O)/C=C\C(=O)Nn1c(Cc2ccc(Cl)cc2)n[nH]c1=O | > 100 µM | > 100 µM | – | > 100 µM | > 100 µM | > 100 µM | > 100 µM | > 100 µM | – | > 100 µM
COc1ccc2cc(C(C)C(=O)N3C(=O)OCC3(C)C)ccc2c1 (configuration not stated) | > 100 µM | > 100 µM | > 100 µM | > 100 µM | > 100 µM | > 100 µM | > 100 µM | > 100 µM | – | –
S=C1SC(=Nc2ccccc2)C(=Nc2ccccc2)N1c1ccc2ccccc2c1 | – | > 100 µM | > 100 µM | > 100 µM | > 100 µM | > 100 µM | > 100 µM | > 100 µM | > 100 µM | > 100 µM
Cc1nc(Nc2ccccc2Cl)sc1C(=O)CC(=O)C(N)=O | > 100 µM | > 100 µM | > 100 µM | – | > 100 µM | > 100 µM | > 100 µM | 66.7 µM | > 100 µM | > 100 µM
COC(NC(=O)Nc1ccccc1C)(C(F)(F)F)C(F)(F)F | – | > 100 µM | > 100 µM | > 100 µM | > 100 µM | > 100 µM | > 100 µM | > 100 µM | > 100 µM | –
O=c1[nH]c(=O)n(C2OC(CO)C(O)C2O)cc1OCCCc1ccccc1 (configuration not stated) | > 100 µM | > 100 µM | > 100 µM | > 100 µM | – | > 100 µM | > 100 µM | > 100 µM | > 100 µM | > 100 µM
NC(=S)NC/C=C/Cl | > 100 µM | > 100 µM | > 100 µM | > 100 µM | – | – | > 100 µM | – | > 100 µM | > 100 µM
COc1ccc(Oc2ccccc2N)cc1 | > 100 µM | > 100 µM | – | 33.6 µM | 38.6 µM | > 100 µM | > 100 µM | > 100 µM | > 100 µM | –
O=C1/C(=C/c2cccc3ccccc23)CCc2ccc([N+](=O)[O-])cc21 | > 100 µM | 77.8 µM | 43.7 µM | – | 39.4 µM | > 100 µM | 12.7 µM | > 100 µM | > 100 µM | > 100 µM
CCOC1=C(c2ccccc2)N2CCCCC2O1 (configuration not stated) | > 100 µM | – | > 100 µM | 4.54 µM | > 100 µM | > 41.9 µM | > 44.5 µM | 32.2 µM | 14 µM | > 84.2 µM
